Entries after “also recorded” stand apart in the source; their conditions may differ.
Tests used:
EP2 prostanoid receptor = molecular target: T1, EP2 prostanoid receptor (Homo sapiens, UniProt P43116); experiment: GloSensor cAMP assay in CHO-K1 cells co-transfected with the EP2 receptor; assay type: cell-based; settings: for Max cAMP level (Fold): CHO-K1 cells
T1 construct: host or cells: CHO-K1
Excerpt: cAMP is a second messenger involved in signal transduction of G-protein coupled receptors (GPCRs) acting through Gα-s and Gα-i proteins. Because the treprostinil receptor is a GPCR, the assay provides an indication of whether the respective prostacyclin compound (or metabolite thereof) binds its receptor and activates the GPCR cell signaling cascade. The GloSensorTM assay harnesses a genetically modified form of firefly luciferase into which a cAMP-binding protein moiety has been inserted. Upon binding of cAMP, a conformational change is induced leading to increased light output. The EP2 prostanoid receptor was co-transfected with the GloSensorTM plasmid (Promega) into CHO-K1 cells as follows. CHO-K1 cells were harvested when the monoloayer was at 50-90% confluence. First, cells were washed with 5 mL PBS. […] The media was aspirated, and the cell pellet was resuspended in 10 mL of growth media. Cell number was determined using a hemacytometer. Each well of a culture treated 96 well flat bottom plate (Costar, Cat #: 3917) was seeded with 1×10^4 cells per 100 μL antibiotic-free growth media. […] For small scale transfections of up to 20 wells, the pGLoSensor-22F cAMP plasmid (Promega, Cat #: E2301) (2 μg): (EP2) (10 ng) (Origene, Cat #: SC126558):pGEM-3Zf(+) (10 ng) (Promega, Cat #: P2271) ratio was diluted to a final concentration of 12.6 ng/μL (total plasmid) in Opti-MEM I reduced-serum medium (Life Technologies, Cat #: 1985062). Next, 6 μL of FuGENE HD transfection reagent (Promega, Cat #: E2311) was added to 160 μL of diluted plasmid and mixed carefully by gentle pipetting. The complex was incubated at room temperature for 0 to 10 minutes, and then 8 μL of the complex was added per well of a 96 well white assay plate (Costar, Cat #: 3917) and gently mixed without disturbing the cell monolayer. […] Following incubation, cells were treated and analyzed. For larger scale transfections, the aforementioned steps were scaled up accordingly, and cells were frozen following the last incubation. In order to prepare frozen transfected CHO-K1 cells, the media was aspirated from culture flasks and cells were rinsed with 5 mL PBS. […] Cell number was determined using a hemacytometer. The media was aspirated, and the cell pellet was resuspended in freezing media (Millipore, cat #: S-002-5F) at 2.5×10^6 cells/vial. Transfected cells were incubated overnight at -80° C. before transfer to liquid nitrogen for long term storage. […] In preparation for cAMP measurement, the cells were equilibrated with the GloSensor cAMP reagent prior to treatment. For equilibration, the medium was carefully removed from the individual well. Next, 100 μL of equilibration medium ([…] of Glosensor Reagent stock solution (Promega, Cat #: E291), 10% FBS (Hyclone, Cat #: SH30071.03) and 88% CO2 independent medium (Life Technologies, Cat #: 18045088)) was added per well of the 96-well plate, and added to the side of each well. The plate was then incubated for 2 hours at room temperature. A first pre-read measurement was taken using a microplate reader (MicroLumat Plus). Plates were incubated for an additional 10 minutes at room temperature, followed by a second pre-read measurement. […] Following treatment, each plate was read every 5 minutes for the duration of the assay using a microplate reader (MicroLumat Plus). In order to determine the fold change in cAMP relative to the control, the transfection efficiency was first determined by dividing the second pre-read measurement by the average of the corresponding pre-read measurements. Next, the normalized relative light units (RLUs) of the samples were determined by dividing the plate read measurement by the transfection efficiency. The fold change in cAMP relative to the control was then determined by dividing the normalized RLU of the samples by the normalized RLU of the control. The cAMP assay was validated using free treprostinil. […] Luminescence was then measured at room temperature. […]

[1] = Tolerability and pharmacokinetics in rats, T748 inhaled for 14 consecutive days; assay type: in vivo, rat; settings: T748, 0.6-18 μg/kg
Experimental: Body weights were recorded daily and organ weights (lungs, heart, liver) were measured 24 hr. after the last drug dose.

[2] = dog, in vivo
Experimental: Twelve beagle dogs of either sex were randomly assigned to different inhaled doses of treprostinil in PBS or the compound of Formula (A) wherein
Formulations were nebulized with an Aeroneb nebulizer (MMAD: 2.5-4 μm) delivered into a 500 ml expansion chamber. Formulations were nebulized for 2 min at ventilator settings of 90 ml/breath, 15 breaths/min (delivered volume=2.7 L) and collected on a filter. Drug amount (m) on the filter was measured by HPLC to calculate the concentration of drug delivered through the ventilator circuit (μg/L).
Dosimetry was performed in propofol-anesthetized dogs in which nebulized drugs were introduced into a mixing chamber interposed on the inspiratory limb of a canine respirator. Technical trials were performed before each experiment to measure the concentration of drug (μg/L) delivered for each breath. The inhaled drug dose (μ/kg) was calculated using the formula: Inhaled Drug Dose (μg/kg)=Drug Conc. (μg/L)×Minute Ventilation (L/min.)×Time (min.)/Body Weight (kg). […] Clinical signs were monitored over this 72 hr. period.
Dosimetry was performed in propofol-anesthetized, artificially ventilated dogs in which nebulized drugs were introduced into a mixing chamber interposed on the inspiratory limb of the respirator. […] Clinical signs (cough, rapid shallow breathing, emesis and pale gums) were also monitored.

[3] = Treprostinil pharmacokinetics in anaesthetised, ventilated rats after nebulized dosing; assay type: in vivo, rat; settings: nebulized TRE solution
Experimental: Male Sprague Dawley rats were anaesthetised and prepared with endotracheal tube for ventilation. The right femoral vein was cannulated to facilitate blood collections. Terminal lung samples were taken for analysis only 6 hours after dosing. […] Systemic blood pressure (mSAP), heart rate (HR), and arterial oxygen saturation (SaO2). Physiologic parameters were measured during normoxia (fraction of inspired oxygen [FrO2]=0.21, SaO2≈90%) and for 2 to 3 hours during hypoxia (FrO2=0.10, SaO2≈50%).

[4] = test system: Cough Reflex in Guinea Pigs; experiment: Cough reflex in guinea pigs (whole body plethysmograph); assay type: in vivo, guinea pig
Experimental: T623 has the following components:
Aerosols were generated with an Ultra-Neb Pro nebulizer (nebulizer output 0.36 mL/min.) that was mixed with inspired air delivered at a rate of 2 L/min. The PBS or drugs were delivered for 10 min. and the number of coughs recorded during and for 20 min. after the delivery. Coughs were detected by visual observations, plethysmograph recordings and cough sounds.

[5] = nebulized concentration of 30 μg/mL

T1 sequence (P43116 whole entry): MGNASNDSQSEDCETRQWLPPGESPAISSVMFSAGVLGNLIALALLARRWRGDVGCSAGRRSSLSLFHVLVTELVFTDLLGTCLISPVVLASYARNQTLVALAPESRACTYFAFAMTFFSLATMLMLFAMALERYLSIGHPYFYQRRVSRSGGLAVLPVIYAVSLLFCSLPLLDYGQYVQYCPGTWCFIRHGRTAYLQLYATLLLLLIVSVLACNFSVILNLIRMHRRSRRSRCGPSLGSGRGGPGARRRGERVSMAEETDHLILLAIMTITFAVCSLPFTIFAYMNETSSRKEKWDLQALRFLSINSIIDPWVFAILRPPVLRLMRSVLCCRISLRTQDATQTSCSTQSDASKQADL

Row | SMILES | ranking of activity of the treprostinil compounds (EP2 prostanoid receptor; kinetic profile, 10 μM and 5 μM, FIG. 21) | tolerability, body weights and organ weights [1] | cAMP levels sustained for (EP2 prostanoid receptor; 10 μM, composition, FIG. 3A) | Max cAMP level (Fold) (EP2 prostanoid receptor; Effect of nebulization (FIG. 6), head prints (5 μM)) | EC50 (EP2 prostanoid receptor; cAMP response in CHO-K1 cells, 4.5 hr incubation) [µM] | Max cAMP level (Fold) (EP2 prostanoid receptor; compositions shown in FIG. 3, 8 hours time course) | Max cAMP level (Fold) (EP2 prostanoid receptor; compositions shown in FIG. 4, 5 μM, 8 hours time course) | period over which plasma levels of treprostinil were sustained [2] | time beyond which measurable levels of TRE were not seen in the blood plasma [3] [h] | exposure concentration consistently evoking cough ([4]; 1-300 μg/ml tested) [µg/mL] | cough bouts [4, 5] | cough response [4, 5] | total number of coughs ([4]; nebulized concentration of 30 μg/mL, 10 min delivery + 20 min) [coughs]
1 | CCCCCCCCCCCCCCCCOC(=O)COc1cccc2c1C[C@H]1C[C@@H](O)[C@H](CC[C@@H](O)CCCCC)[C@H]1C2 [Compound C16-TR, hexadecyl-treprostinil] | C12-TR>C14-TR>5-nonanyl-TR>C16-TR | no tolerability issues or significant changes (relative to PBS) in body weights and organ weights; also recorded: well tolerated with no evidence of body weight and organ weight change | – | – | – | – | – | – | – | – | – | – | –
2 | CCCCC[C@H](O)CC[C@@H]1[C@H]2Cc3cccc(OCC(=O)O)c3C[C@H]2C[C@H]1O [Treprostinil, (1R,2R,3aS,9aS)-[[2,3,3a,4,9,9α-hexahydro-2-hydroxy-1-[(3S)-3-hydroxyoctyl]-1H-benz[f]inden-5-yl]oxy]acetic acid] | – | – | not exhibited | ~15 | 0.2 | ~16 | ~14 | disappeared within a few hours | ≤ 4 | ≥ 30 | 1-4 | consistent cough in 7 of 7 guinea pigs | 36±9

From US11795135B2, “Prostacyclin compounds, compositions and methods of use thereof” (Insmed Incorporated, priority 2013, dated 2023)
